We go through two molecules from patent US20070092577A1, “Dietary calcium for reducing the production of reactive oxygen species” (University of Tennessee Research Foundation, priority 2005, published 2007).

In experiment [1] the test system is Mitochondrial potential in cultured wild-type 3T3-L1 adipocytes. Description: Mitochondrial membrane potential (JC-1). Format: cell-based, murine. The settings on record: H2O2 100 nmol/L, 48 hours. Here is the method: (§1) 3T3-L1 preadipocytes were incubated at a density of 8000 cells/cm^2 (10 cm^2 dish) and grown in Dulbecco's modified Eagle's medium (DMEM) containing 10% FBS and antibiotics (adipocyte medium) at 37° C. in 5% CO2 in air. Confluent preadipocytes were induced to differentiate with a standard differentiation medium consisting of DMEM-F 10 (1:1, vol/vol) medium supplemented with 1% FBS, 1 μM dexamethasone, IBMX (0.5 mM) and antibiotics (1% Penicillin-Streptomycin). Preadipocytes were maintained in this differentiation medium for 3 days and subsequently cultured in adipocyte medium. Cultures were re-fed every 2-3 days to allow 90% of cells to reach full differentiation before conducting chemical treatment. Chemicals were freshly diluted in adipocyte medium before treatment. […] Cell viability was measured via trypan blue exclusion.
Mitochondrial membrane potential was analyzed fluorometrically with a lipophilic cationic dye JC-1 (5,5′,6,6′-tetrachloro-1,1′,3,3′-tetraethylbenzimidazol carbocyanine iodide) using a mitochondrial potential detection kit (Biocarta, San Diego, Calif.). Mitochondrial potential was determined as the ratio of red fluorescence (excitation 550 nm, emission 600 mn) and green fluorescence (excitation 485 nm, emission 535 nm) using a fluorescence microplate reader.

The next experiment deals with CD14. Description: CD14 expression in human adipocytes. It counts as cell-based. The conditions noted are these: calcitriol 10 nmol/L, 48 hours; p=0.008. The text has this:
Cell culture: Human preadipocytes used in this study were supplied by Zen-Bio (Research Triangle, N.C.). Preadipocytes were inoculated in DMEM/Ham's F-10 medium (DMEM-F10) (1:1, vol/vol) containing 10% FBS, 15 mmol/L HEPES, and antibiotics at a density of 30,000 cells/cm^2. Confluent monolayers of preadipocytes were induced to differentiate with a standard differentiation medium consisting of DMEM-F 10 (1:1, vol/vol) medium supplemented with 15 mmol/L HEPES, 3% FBS, 33 μmol/L biotin, 17 μmol/L pantothenate, 100 nmol/L insulin, […] methylisobutylxanthine, 1 μmol/L dexamethasone, 1 μmol/L BRL49653, and antibiotics. […]
Cells were washed with fresh adipocyte medium, re-fed with medium containing the indicated treatments, and incubated at 37° C. in 5% CO2 for 48 hours before analysis. Cell viability was measured via trypan blue exclusion.
Adipocyte and muscle 18s, CD14, TNFα, MIP, M-CSF, IL-6 and MCP-1 were quantitatively measured using a Smart Cycler Real Time PCR System (Cepheid, Sunnyvale, Calif.) with a TaqMan 1000 Core Reagent Kit (Applied Biosystems, Branchburg, N.J.). […] Reactions of quantitative RT-PCR for standards and unknown samples were also performed according to the instructions of Smart Cycler System (Cepheid, Sunnyvale, Calif.) and TaqMan Real Time PCR Core Kit (Applied Biosystems, Branchburg, N.J.). […]

For another experiment, the system named is IL-8. As to the kind of experiment: IL-8 expression in differentiated Zen-bio human adipocytes. It counts as cell-based. The settings on record: 10 nmol/L, 48 h; p<0.001. As to the method:
Human pre-adipocytes used in this study were supplied by Zen-Bio (Research Triangle, N.C.). […] The cells are isolated from the stromal vascular fraction of human subcutaneous adipose tissue and differentiated in vitro as follows: […] Preadipocytes were maintained in this differentiation medium for 3 days and subsequently cultured in adipocyte medium in which BRL49653 and MIX were omitted. Cultures were re-fed every 2-3 days till fully differentiated. Cells were incubated in serum free medium overnight before chemical treatment. Chemicals were freshly diluted in adipocyte medium before treatment. […] Cell viability was measured via trypan blue exclusion. Adipocyte and muscle 18s, TNFα, IL-6, IL-8, IL-15 and adiponectin were quantitatively measured using a smart cycler real-time PCR system (Cepheid, Sunnyvale, Calif.) with a TaqMan 1000 Core Reagent Kit (Applied Biosystems, Branchburg, N.J.). […] Reactions of quantitative RT-PCR for standards and unknown samples were also performed according to the instructions of Smart Cycler System (Cepheid, Sunnyvale, Calif.) and TaqMan Real Time PCR Core Kit (Applied Biosystems, Branchburg, N.J.). The mRNA quantitation for each sample was further normalized using the corresponding 18s quantitation.

The test system of another experiment is cyclin A. Description: Cyclin A expression in 3T3-L1 adipocytes. Format: cell-based, murine. The settings on record: added to glucose 30 mmol/L, 48 hours; nifedipine 10 μmol/L. As to the method:
as §1, with “exclusion. Adipocyte 18s, cyclin A, NADPH oxidase, and UCP2 were quantitatively measured using a Smart Cycler Real Time PCR System (Cepheid, Sunnyvale, Calif.) with a TaqMan 1000 Core Reagent Kit (Applied Biosystems, Branchburg, N.J.). […] Reactions of quantitative RT-PCR for standards and unknown samples were also performed according to the instructions of Smart Cycler System (Cepheid, Sunnyvale, Calif.) and TaqMan Real Time PCR Core Kit (Applied Biosystems, Branchburg, N.J.). The mRNA quantitation for each sample was further normalized using the corresponding 18s quantitation.” for “exclusion.”

With `OO` [H2O2, hydrogen peroxide], the “increase of mitochondrial potential” value in experiment [1] stood at 72%.
Consider `C=C1/C(=C\C=C2/CCC[C@]3(C)[C@@H]([C@H](C)CCCC(C)(C)O)CC[C@@H]23)C[C@@H](O)C[C@@H]1O` [calcitriol, 1, 25-Dihydroxyvitamin D], for which the “increase of CD14 expression” value with CD14 came out at 33%. Further, in the experiment on IL-8, the “stimulation of IL-8 expression” value amounted to 49%. Also, in the experiment on cyclin A, the “effect on glucose stimulated cyclin A expression” value is on record as “augmented”.
